# According to patent publication US7303921B2, “Method to assay coenzyme Q10 in blood plasma or blood serum” (priority 2002, dated 2007):
# Where “and” joins values, the source holds several entries; their conditions need not be identical. Equal entries are not always repeated.
# What was measured:
# [1] = Stability of total CoQ10 in plasma at different storage conditions and times; assay type: physicochemical, human
# Method: In order to check the stability of total CoQ10 in plasma, aliquots of 3 different samples were kept for 3 days at 4° C., room temperature (22° C.) and at −20° C. respectively.
# (§1) Description of the Analysis. 200 μl of a blood plasma sample were supplemented with 50 μl of a 1,4 benzoquinone solution (2 mg/ml) in a test tube and vortexed for 10 seconds. After 10 minutes, 1 ml of n-propanol was added. The test tube was vortexed for 10 seconds and centrifuged at 10,000 rpm for 2 minutes in order to spin down the protein precipitate. 200 μl of the supernatant were injected into the HPLC. […] Mobile phase was constituted by ethanol-methanol (65%-35%) and the flux was 1 ml/min. UV detection was performed at 275 nm.
# [2] = Stability of the n-propanol extract (supernatant) of plasma CoQ10; assay type: physicochemical
# Method: as §1
# For practical reasons the propanol extract can be kept in the refrigerator up to 3 days before injection into the HPLC. Several samples were checked by analysing them 1 hour, 1, 2 and 4 days after drawing the blood, keeping the samples at −20° C., 0-4° C., or +22° C. (room temperature) and the results, as far as total CoQ10 was concerned, were the same for the same sample whether kept at different temperatures or for different lengths of time (presumably only the reduced/oxidised CoQ10 ratio changed). There was no need to add any stabilizing agent to the sample.
compound,measurement,setting,value
COC1=C(OC)C(=O)C(C/C=C(\C)CC/C=C(\C)CC/C=C(\C)CC/C=C(\C)CC/C=C(\C)CC/C=C(\C)CC/C=C(\C)CC/C=C(\C)CC/C=C(\C)CCC=C(C)C)=C(C)C1=O [CoQ10],Mean total CoQ10,"[1]; 0-4° C., 72 h, plasma samples A, B, C",1.82 µM and 1.11 µM
same,total CoQ10 result after storage of samples,"[1]; 1 hour, 1, 2 and 4 days after drawing the blood, −20° C., 0-4° C. or +22° C., no stabilizing agent",the same
same,stability of total CoQ10 in plasma,[1]; even when kept at room temperature,practically stable for at least three days
same,stability of supernatant (propanol extract),"[2]; capped test tube, kept at 22° C.",stable for up to three days
same,time the propanol extract can be kept before injection into the HPLC,[2]; in the refrigerator,up to 3 days
